# According to patent US20240207302A1, “ANTIVIRAL COMPOUNDS, METHODS FOR THE MANUFACTURING OF COMPOUNDS, ANTIVIRAL PHARMACEUTICAL COMPOSITION, USE OF THE COMPOUNDS AND METHOD FOR THE ORAL TREATMENT OF CORONAVIRUS INFECTION AND RELATED DISEASES THEREOF” (priority 2021, published 2024):
# Read-outs that look alike come from different tables or passages of the source.
# Tests used:
# [1] = Cytotoxicity assay (XTT) in Vero cells; assay type: cell-based; conditions: African green monkey
# Protocol: (§1) In parallel, cytotoxicity assays were performed.
# [2] = system: SARS-COV-2; experiment: SARS-COV-2 viral RNA synthesis in HuH-7 cells (real time RT-PCR); assay type: cell-based; conditions: for SI: Huh-7, CC50/EC50
# [3] = system: SARS-COV-2; conditions: for SI: CC50/EC50
# [4] = system: SARS-COV-2; experiment: SARS-COV-2 viral RNA synthesis in Vero cells (real time RT-PCR); assay type: cell-based
# [5] = system: SARS-COV-2; experiment: Combination with SARS-COV-2 nsp14 (exonuclease) inhibitors in Calu-3 cells, infectious virus titers; assay type: cell-based; conditions: for EC99 mean / EC50 / EC90: Calu-3, alone or in combination as labelled; for EC50 / EC90: Severe acute respiratory syndrome coronavirus 2; for effect of co-treatment with raltegravir or dolutegravir (iEXO) on inhibition of SARS-COV-2: drug 10 μM, raltegravir or dolutegravir 5 μM
# [6] = Cytotoxicity assay (XTT) in Calu-3 cells; assay type: cell-based, human; conditions: human
# Protocol: as §1
# [7] = Cytotoxicity assay (XTT) in Huh-7 cells; assay type: cell-based; conditions: human
# Protocol: In parallel, cytotoxicity assays were performed. Monolayers of 1.5×10^4 cells in 96-well plates were treated for 3 days with various concentrations (semi-log dilutions from 1,000 to 10 μM) of the antiviral drugs. Then, 5 mg/mL 2,3-bis-(2-methoxy-4-nitro-5-sulfophenyl)-2H-tetrazolium-5-carboxanilide (XTT) in DMEM was added to the cells in the presence of 0.01% of N-methyl dibenzopyrazine methyl sulfate (PMS).
# [8] = system: SARS-COV-2; experiment: SARS-COV-2 viral RNA synthesis in Calu-3 cells (real time RT-PCR); assay type: cell-based; conditions: 1.0 μM
# [9] = system: mouse bone marrow polychromatic erythrocytes; experiment: Micronucleus test in mouse bone marrow; assay type: in vivo; conditions: mice; 25 mg/Kg i.p.
# Protocol: The ratio of polychromatic to normochromatic erythrocytes and the count of micronuclei were determined. This assay was conducted in compliance with the GLP principles.
# [10] = system: SARS-COV-2; experiment: SARS-COV-2 RNA loads in human primary monocytes; assay type: cell-based; conditions: 24 h
# Protocol: (§2) FIG. 5A, 5B and 5C. The compounds impair SARS-COV-2 RNA synthesis and SARS-COV-2-induced release of inflammatory mediators in human primary monocytes.
# (§3) Human primary monocytes were obtained after 3 h of plastic adherence of peripheral blood mononuclear cells (PBMCs). PBMCs were isolated from healthy donors by density gradient centrifugation (Ficoll-Paque, GE Healthcare). PBMCs (2.0×10^6 cells) were plated onto 48-well plates (NalgeNunc) in RPMI-1640 without serum for 2 to 4 h. Non-adherent cells were removed, and the remaining monocytes were maintained in DMEM with 5% human serum (HS; Millipore) and penicillin/streptomycin. Monocytes were infected at MOI of 0.1. After 1 h inoculation period, cells were washed with phosphate saline buffer (PBS) to remove unbounded viruses and treated with 1 μM of the indicated compounds. After 24 h after infection, cell monolayers werc lysed total viral RNA was extracted, quantitative RT-PCR was performed, to detect the SARS-COV-2 and the housekeeping gene RNAse P.
# [11] = system: TNF-α and IL-6; experiment: TNF-α and IL-6 levels in supernatant of SARS-COV-2-infected human primary monocytes; assay type: cell-based; conditions: 24 h
# Protocol: as §2, §3
# [12] = system: Calu-3 cells; experiment: Cytotoxicity assay (XTT) in Calu-3 cells; assay type: cell-based, human
# Protocol: as §1
# [13] = Severe acute respiratory syndrome coronavirus 2, Huh-7 (MOI 0.1 48 h), read-out: EC50
# [14] = Calu-3, single moment treatment
# [15] = Severe acute respiratory syndrome coronavirus 2, Calu-3, 72 h, Calu-3 (MOI 0.5 72 h), daily treatment
# [16] = Severe acute respiratory syndrome coronavirus 2, Calu-3, 72 h, Calu-3 (MOI 0.5 72 h), single moment treatment
# [17] = Severe acute respiratory syndrome coronavirus 2, Calu-3, Table 6, Calu-3, daily treatment
# [18] = Severe acute respiratory syndrome coronavirus 2, Calu-3, Table 6, Calu-3, single treatment
# [19] = Table 6, Calu-3, daily treatment
# [20] = Table 6, Calu-3, single treatment
# [21] = Severe acute respiratory syndrome coronavirus 2, Vero (MOI 0.01 24 h), read-out: EC50
SMILES,"SI [3, 14]","EC50 [3, 15]","EC90 [3, 15]","EC50 [3, 16]","EC90 [3, 16]","EC50 [3, 17]","EC90 [3, 17]","EC50 [3, 18]","EC90 [3, 18]","SI [3, 19]","SI [3, 20]",EC99 mean [5],EC50 [5],EC90 [5],"CC50 at 3 days [6, 19]","CC50 at 3 days [6, 20]",CC50 at 3 days [7],further results
"CCC(CC)COC(=O)[C@H](C)N[P@](=O)(OC[C@H]1O[C@@](C#N)(c2ccc3c(N)ncnn23)[C@H](O)[C@@H]1O)Oc1ccccc1 [Remdesivir, reference compound]",2300,0.01 µM,0.2 µM,0.15 µM,0.4 µM,0.01 µM,0.2 µM,0.15 µM,0.4 µM,"3,3000",2.300,1.1 µM,0.09 µM,0.4 µM,330 µM,350 µM,280 µM,"CC50 at 3 days [1]: 530 µM; SI [2]: 46666; EC50 [2, 13]: 0.006 µM; EC50 [4, 21]: 0.7 µM; SI ([4]; Vero, CC50/EC50): 757"
COC(=O)N[C@H](C(=O)N1CCC[C@H]1c1nc2cc([C@H]3CC[C@H](c4cc5nc([C@@H]6CCCN6C(=O)[C@@H](NC(=O)OC)[C@@H](C)OC)[nH]c5cc4F)N3c3cc(F)c(N4CCC(c5ccc(F)cc5)CC4)c(F)c3)c(F)cc2[nH]1)[C@@H](C)OC [Pibrentasvir],,,,,,,,,,,,19 µM,0.7 µM,4.2 µM,,,,
"C/C(=C\CNc1ncnc2[nH]cnc12)CO [MB-907, zeatin]",,,,,,,,,,,,,,,,,600 µM,"EC50 ([2]; Severe acute respiratory syndrome coronavirus 2, Huh-7, 48 h): 0.05 µM; EC50 ([4]; Severe acute respiratory syndrome coronavirus 2, Vero, 24 h): 6 µM"
"C[C@@H]1CCO[C@H]2Cn3cc(C(=O)NCc4ccc(F)cc4F)c(=O)c(O)c3C(=O)N12 [DTG, dolutegravir]",,,,,,,,,,,,,5.3 µM,,,,,"effect on SARS-COV-2 replication ([5]; calu-3, 5 μM): marginal effects"
"CC(C)OC(=O)[C@H](C)NP(=O)(OC[C@H]1O[C@@H](n2cnc3c(NCc4ccco4)ncnc32)[C@H](O)[C@@H]1O)Oc1ccccc1 (stereo partly shown) [MB-711, kinetin riboside monophosphoramidate]",510,0.01 µM,3.8 µM,1.1 µM,9.2 µM,0.01 µM,3.8 µM,1.1 µM,9.2 µM,"58,000",510,,,,580 µM,562 µM,,"inhibition of SARS-COV-2 RNA synthesis [8]: best profiles; SI ([3]; Calu-3, daily treatment): 58000 µM; effect of co-treatment with raltegravir or dolutegravir (iEXO) on inhibition of SARS-COV-2 ([5]; calu-3): synergistic; CC50 at 3 days ([6]; Calu-3, daily treatment): 580 µM; CC50 at 3 days [6, 14]: 562 µM"
"O=P1(N(CCCl)CCCl)NCCCO1 (stereo not shown) [Cyclophosphamide, reference compound]",,,,,,,,,,,,,,,,,,"MNPCE/4,000 PCE (Mean ± S.D.) [9]: 16.20 ± 6.03"
COC(=O)N[C@H](C(=O)N1CCC[C@H]1c1nc(-c2ccc(-c3ccc(-c4c[nH]c([C@@H]5CCCN5C(=O)[C@@H](NC(=O)OC)C(C)C)n4)cc3)cc2)c[nH]1)C(C)C [Daclatasvir],,,,,,,,,,,,,0.7 µM,3.8 µM,,,,
COC(=O)N[C@H](C(=O)N1CCC[C@H]1C(=O)Nc1ccc([C@@H]2CC[C@@H](c3ccc(NC(=O)[C@@H]4CCCN4C(=O)[C@@H](NC(=O)OC)C(C)C)cc3)N2c2ccc(C(C)(C)C)cc2)cc1)C(C)C [Ombitasvir],,,,,,,,,,,,18 µM,0.4 µM,3.3 µM,,,,
"OC[C@H]1O[C@@H](n2cnc3c(NCc4ccco4)ncnc32)[C@H](O)[C@@H]1O [MB-801, kinetin riboside]",3055,0.02 µM,3.7 µM,0.18 µM,7.2 µM,0.02 µM,3.7 µM,0.18 µM,7.2 µM,"26,500",3.055,,,,530 µM,550 µM,229 µM,"inhibition of SARS-COV-2 RNA synthesis [8]: best profiles; SI [2]: 2290; EC50 [2, 13]: 0.1 µM; SI ([3]; Calu-3, daily treatment): 26500 µM; viral RNA levels/cell [10]: reduced; SARS-CoV-2-induced enhancement of IL-6 levels in culture supernatant [11]: reduced; SARS-CoV-2-induced enhancement of TNF-α levels in culture supernatant [11]: reduced; EC50 [4, 21]: 8 µM; effect of co-treatment with raltegravir or dolutegravir (iEXO) on inhibition of SARS-COV-2 ([5]; calu-3): synergistic; CC50 ([12]; Calu-3, daily treatment): 530 µM; CC50 [12, 14]: 550 µM"
